Test results from paper PMC3430861, “The pharmacological profile of ELIC, a prokaryotic GABA-gated receptor” (Neuropharmacology, 2012).

The compounds below were run against T1, ELIC (Dickeya chrysanthemi, UniProt P0C7B7, INS163G) (assay: cell-based).
T1 construct: expressed in transfected cells; host or cells: Xenopus laevis oocytes injected with cRNA
Format: cell-based, Erwinia chrysanthemi
Protocol: Xenopus laevis oocyte-positive females were purchased from NASCO (Fort Atkinson, Wisconsin, USA) and maintained according to standard methods.
The ELIC sequence (Genbank accession number POC7B7) was purchased from Genscript as a synthetic gene with optimized codon usage for expression in Escherichia coli. […] Stage V and VI oocytes were injected with 20 ng cRNA, and currents recorded 1–3 days post-injection.

SMILES	EC50 [mM]
C[C@H](N)C(=O)O [Alanine]	> 10
N=C(N)NCCC[C@H](N)C(=O)O [Arginine]	> 10
NC(=O)C[C@H](N)C(=O)O [Asparagine]	> 10
N[C@@H](CC(=O)O)C(=O)O [Aspartate]	> 10
N[C@@H](CS)C(=O)O [Cysteine]	> 10
NC(=O)CC[C@H](N)C(=O)O [Glutamine]	> 10
N[C@@H](Cc1c[nH]cn1)C(=O)O [Histidine]	> 10
CC[C@H](C)[C@H](N)C(=O)O [Isoleucine]	> 10
N[C@@H](CCC(=O)O)C(=O)O [L-glutamate]	> 10
CC(C)C[C@H](N)C(=O)O [Leucine]	> 10
NCCCC[C@H](N)C(=O)O [Lysine]	> 10
CSCC[C@H](N)C(=O)O [Methionine]	> 10
N[C@@H](Cc1ccccc1)C(=O)O [Phenylalanine]	> 10
O=C(O)[C@@H]1CCCN1 [Proline]	> 10
N[C@@H](CO)C(=O)O [Serine]	> 10
C[C@@H](O)[C@H](N)C(=O)O [Threonine]	> 10
N[C@@H](Cc1c[nH]c2ccccc12)C(=O)O [Tryptophan]	> 10
N[C@@H](Cc1ccc(O)cc1)C(=O)O [Tyrosine]	> 10
CC(C)[C@H](N)C(=O)O [Valine]	> 10
NCc1cc(=O)[nH]o1 [muscimol]	> 10
O=C(O)[C@@H]1CCC(O)=N1 [pyroglutamate]	> 10
O=C(O)CCC(=O)O [succinic acid]	> 10
NCCC(=O)O [β-alanine]	> 10
O=C1CCCO1 [γ-butyrolactone]	> 10
